Measured values reported in article PMC2931804 (Clinical cancer research : an official journal of the …, 2010).
Values joined by “and” are separate entries in the source; they are usually repeats but may differ in a detail not shown here. Equal values may be shown once.

How the values were obtained:
[1] = Vorinostat serum pharmacokinetics; type: in vivo, human
[2] = 300 mg orally twice daily × 1 week with FOLFOX; cited from earlier work
[3] = 600 mg orally twice daily, individual patients, cycle 2
[4] = 1,700 mg orally once daily, individual patients, cycle 2

SMILES: O=C(CCCCCCC(=O)Nc1ccccc1)NO [vorinostat, suberoylanilide hydroxamic acid]
- AUC0–8 [1, 3]: 7.8 µmol·h/L
- Cmax [1, 3]: 4.99 µM
- Tmax [1, 3]: 2 h and 4 h
- Cmax ([1]; 600 mg orally twice daily, mean of 3 patients (SD 1.51)): 3.46 µM
- AUC0–8 [1, 4]: 35.1 µmol·h/L and 2.6 µmol·h/L and 26 µmol·h/L
- Cmax [1, 4]: 6.4 µM
- Tmax [1, 4]: 1 h
- Cmax ([1]; 1,700 mg orally once daily, mean of 3 patients (SD 3.09)): 4.49 µM
- half-life ([1]; human, oral, half-life, general statement in discussion): ~120 min
- maximum vorinostat serum concentrations [2]: < 1.5 µmol/L
